PMC5290001 (Clinical cancer research : an official journal of the …, 2016)
Values joined by “and” are separate entries in the source; they are usually repeats but may differ in a detail not shown here. Equal values may be shown once. Read-outs that look alike come from different tables or passages of the source.

Assays:
[1] = Phase 1 dose escalation: toxicity; assay type: in vivo, human
[2] = Veliparib plasma pharmacokinetics; assay type: in vivo, human; conditions: for half-life: human, plasma, oral
[3] = tested on: Ser139-phospho-H2AX (γH2AX); assay: H2AX phosphorylation in viable peripheral blood cells and CD34+ subset; assay type: in vivo, human
[4] = Temozolomide plasma pharmacokinetics; assay type: in vivo, human
[5] = tested on: AML; conditions: cited from earlier work; for Response rate: temozolomide 200 mg/m^2/day x 7 days, adults ≥ 60 years
[6] = veliparib 200 mg, administered alone
[7] = single dose of veliparib, 6 hours, relative to pretreatment, DL5/DL6
[8] = temozolomide 200 mg/m^2/day alone (day 3), veliparib dose 20–200 mg

Q: For `C[C@]1(c2nc3c(C(N)=O)cccc3[nH]2)CCCN1` [Veliparib, veliparib], which “Maximum tolerated dose (MTD) / RP2D of veliparib” value ([1]; given with temozolomide 200 mg/m^2 daily for 7 days, veliparib for 9 days) is on record?
A: 150 mg twice daily

Q: What about the half-life ([2]; t1/2, veliparib 120 mg in combination with temozolomide 200 mg/m^2/day (day 8)) of the same compound?
A: 9.1 ± 8 h

Q: What about the half-life ([2]; t1/2, veliparib 150 mg in combination with temozolomide 200 mg/m^2/day (day 8)) of the same compound?
A: 5.3 ± 1.7 h

Q: And the half-life ([2]; t1/2, veliparib 200 mg in combination with temozolomide 200 mg/m^2/day (day 8))?
A: 3.6 ± 2.8 h

Q: And the V/F ([2]; veliparib 20 mg alone (day 1), temozolomide dose 150 or 200 mg/m^2/day)?
A: 285 ± 175 L

Q: What about the V/F ([2]; veliparib 20 mg in combination with temozolomide 150 or 200 mg/m^2/day (day 8)) of the same compound?
A: 180±49 (3) L

Q: What about the V/F ([2]; veliparib 120 mg alone (day 1), temozolomide dose 200 mg/m^2/day) of the same compound?
A: 181±50 (10) L

Q: And the V/F ([2]; veliparib 120 mg in combination with temozolomide 200 mg/m^2/day (day 8))?
A: 191±165 (8) L

Q: And the V/F ([2]; veliparib 150 mg alone (day 1), temozolomide dose 200 mg/m^2/day)?
A: 190±72 (16) L

Q: What about the V/F ([2]; veliparib 150 mg in combination with temozolomide 200 mg/m^2/day (day 8)) of the same compound?
A: 109±45 (10) L

Q: What about the V/F ([2]; veliparib 200 mg alone (day 1), temozolomide dose 200 mg/m^2/day) of the same compound?
A: 84±26 (4) L

Q: What about the V/F ([2]; veliparib 200 mg in combination with temozolomide 200 mg/m^2/day (day 8)) of the same compound?
A: 77±59 (3) L

Q: And the “Increase in AUC at the highest administered dose” value [2, 6]?
A: 1.4 fold

Q: And the “Increase in Cmax at the highest administered dose” value [2, 6]?
A: 2.5 fold

Q: And the “Increase in phospho-H2AX positive CD34+ cells” value ([3]; 1 patient with HI, day 1)?
A: 2.3 fold

Q: What about the “Patients with increased H2AX phosphorylation in CD34+ subset” value [3, 7] of the same compound?
A: 8 of 12

Q: And the “Patients with increased H2AX phosphorylation in PB cells” value [3, 7]?
A: 4 of 12

Q: And the “Increase in H2AX phosphorylation in PB cells” value ([3]; two patients who achieved CR)?
A: ≥ 2 fold

Q: And the “Increase in phospho-H2AX positive CD34+ cells” value ([3]; two patients who achieved CR, day 1, 6 hours post- versus pre-treatment)?
A: 2.3 fold and 1.3 fold

Q: Which “Temozolomide dose at the MTD / RP2D” value ([1]; for 7 days, with veliparib 150 mg twice a day) does the source give for `Cn1nnc2c(C(N)=O)ncn2c1=O` [Temozolomide, temozolomide] here?
A: 200 mg/m^2/day

Q: And the Cmax ([4]; human, plasma, oral, Cmax, temozolomide 200 mg/m^2/day in combination with veliparib 20–200 mg (day 8))?
A: 12000 ± 3800 ng/mL

Q: What about the half-life ([4]; human, plasma, oral, t1/2, temozolomide 200 mg/m^2/day in combination with veliparib 20–200 mg (day 8)) of the same compound?
A: 1.9 ± 0.4 h

Q: And the Tmax ([4]; human, plasma, oral, tmax (median), temozolomide 200 mg/m^2/day in combination with veliparib 20–200 mg (day 8))?
A: 1 h

Q: What about the “Cl/F, Obs.” value [4, 8] of the same compound?
A: 9.2 ± 3.2 L/h

Q: And the “V/F, Obs.” value [4, 8]?
A: 25 ± 9.1 L

Q: And the V/F ([4]; temozolomide 200 mg/m^2/day in combination with veliparib 20–200 mg (day 8))?
A: 28±10 (25) L

Q: What about the Overall response rate ([5]; MGMT+ cases) of the same compound?
A: 6%

Q: And the Overall response rate ([5]; MGMT− AMLs)?
A: 60%

Q: What about the “Patients achieving a response” value ([5]; newly diagnosed AML or high-risk MDS with low MGMT expression) of the same compound?
A: 53%

Q: What about the Response rate ([5]; newly diagnosed AML) of the same compound?
A: 22%

Q: And the Response rate ([5]; relapsed/refractory AML)?
A: 5%
